# Values of other authors in publication PMC4041784, “Stereoselective Property of 20(S)-Protopanaxadiol Ocotillol Type Epimers Affects Its Absorption and Also the Inhibition of P-Glycoprotein” (PLoS ONE, 2014).
# Legend:
# [1] = test system: peroxisome proliferator activated receptor-γ; parameters: method as in PMID 22234331
# human fecal microflora = test system: human fecal microflora; parameters: method as in PMID 11824558
# [2] = not told
# [3] = parameters: method as in PMID 21258738, PMID 15734156
Compound,permeability [2] [×10⁻⁶ cm/s],oral bioavailability [3],other results
20(S)-Rg3,–,–,peroxisome proliferator activated receptor-γ activity relative to 20(R)-Rg3 [1]: 10 fold; transformation amount into 20(S)-Rh2 or 20(S)-PPD relative to 20(R)-Rg3 (human fecal microflora): 19 fold
CC(C)=CCC[C@@](C)(O)[C@H]1CC[C@]2(C)[C@@H]1[C@H](O)C[C@@H]1[C@@]3(C)CC[C@H](O[C@@H]4O[C@H](CO)[C@@H](O)[C@H](O)[C@H]4O)C(C)(C)[C@@H]3CC[C@]12C [20(R)-Rh2],0.02,–,–
CC(C)=CCCC(C)(O)C1CCC2C1C(O)CC1C2(C)CCC2C(C)(C)C(OC3OC(CO)C(O)C(O)C3O)CCC21C [20(S)-Rh2],0.3,–,permeability difference between 20(R)-Rh2 and 20(S)-Rh2 [2]: 15 folds
"CC(C)=CCC[C@](C)(O)[C@H]1CC[C@]2(C)[C@@H]1[C@H](O)C[C@@H]1[C@@]3(C)CC[C@H](O[C@@H]4O[C@H](CO)[C@@H](O)[C@H](O)[C@H]4O[C@@H]4O[C@H](CO)[C@@H](O)[C@H](O)[C@H]4O)C(C)(C)[C@@H]3CC[C@]12C [Rg3, Ginsenoside Rg3]",–,less than 5%,–
"CC(C)=CCC[C@](C)(O)[C@H]1CC[C@]2(C)[C@@H]1[C@H](O)C[C@@H]1[C@@]3(C)CC[C@H](O[C@@H]4O[C@H](CO)[C@@H](O)[C@H](O)[C@H]4O)C(C)(C)[C@@H]3CC[C@]12C [Rh2, ginsenoside Rh2]",–,less than 5%,–
